According to patent US20080014289A1, “Vehicle and method for treating and preventing acne vulgaris and exfoliating the skin hypohalous acids” (priority 2006, published 2008):
Like-named read-outs stand apart in the source and are kept apart here.

What was measured:
[1] = cited from earlier work
cells = settings: equimolar basis, compared with HOCl; cited from earlier work
acne vulgaris = assay: Preclinical trial of washing solution, anti-acne activity; format: in vivo
Excerpt: The concentration of HOCl in the washing solution may be higher than this value depending on where the washing solution is to be applied, e.g. when treating a patient's back for trunk acne, the concentration of HOCl in the washing solution may be as high as 60 ppm for maximum effect in the short term because the thickness of skin on this section of a body is around 3 mm (as compared to a skin thickness of 0.1 mm at the chin section of the face).
Treatment is divided into two stages, treatment period and maintenance period. User should conduct the treatment daily during treatment period until no acne break out; then can switch to maintenance period.
• 1. Wash the face regularly with soap completely removing oil and grime from the surface of the skin. Concentrate on areas of the skin prone to suffering from acne, such as forehead, chin, jawline, around the lips and nose. • 2. Prepare the washing solution as indicated in Examples 1A-1I. • 3. Submerge your face fully into the washing solution, in order to extend time for skin contacting with the solution, moving the head as much as practical while submerged. […]

bacteria = settings: hot tubs, spas and swimming pools; cited from earlier work
[2] = cited from earlier work; remark: listed apart in the source

OBr [HOBr, hypobromous acid]
% of bromine as HOBr ([1]; water pH 6.0): 100%
% of bromine as HOBr ([1]; water pH 6.5): 99.4%
% of bromine as HOBr ([1]; water pH 7.0): 98%
% of bromine as HOBr ([1]; water pH 7.5): 94.0%
% of bromine as HOBr ([1]; water pH 8.0): 83.0%
% of bromine as HOBr ([1]; water pH 8.5): 57.0%
efficiency as a lytic agent, factor relative to HOCl (cells): 10
anti-acne activity compared with hypochlorous acid (acne vulgaris): slightly less effective than hypochlorous acid

OCl [HOCl, hypochlorous acid]
time needed to completely destroy a given concentration of bacteria (bacteria): 30 s
FAC existing as active HOCl ([2]; pH above 7.5): < 50%
% of Chlorine as HOCl ([2]; water pH 6.5): 90%
% of Chlorine as HOCl ([2]; water pH 7.0): 73%
% of Chlorine as HOCl ([2]; water pH 7.2): 66%
share of FAC in the active HOCl form ([2]; water pH 7.5): ~50%
% of Chlorine as HOCl ([2]; water pH 7.6): 45%
% of Chlorine as HOCl ([2]; water pH 8.0): 21%
% of Chlorine as HOCl ([2]; water pH 8.5): 10%

OBr [OBr^−, hypobromite]
% bromine as OBr− ([1]; water pH 6.0): 0.0%
% bromine as OBr− ([1]; water pH 6.5): 0.6%
% bromine as OBr− ([1]; water pH 7.0): 2%
% bromine as OBr− ([1]; water pH 7.5): 6.0%
% bromine as OBr− ([1]; water pH 8.0): 17.0%
% bromine as OBr− ([1]; water pH 8.5): 43.0%

Hypochlorite ion [OCl^−]
% chlorine as OCl− ([2]; water pH 6.5): 10%
% chlorine as OCl− ([2]; water pH 7.0): 27%
% chlorine as OCl− ([2]; water pH 7.2): 34%
% chlorine as OCl− ([2]; water pH 7.6): 55%
% chlorine as OCl− ([2]; water pH 8.0): 79%
% chlorine as OCl− ([2]; water pH 8.5): 90%
